Data reported in patent US10112937B2, “P2X7 modulators and methods of use” (Janssen Pharmaceutica NV, priority 2013, dated 2018).

Target: human P2X7 (Homo sapiens (Human), UniProt Q99572)
Test: P2X7 antagonism in human PBMCs (IL-1β release after LPS + Bz-ATP, ELISA)
Assay type: cell-based
Details: for PBMC 10 μM (% control): test compound 10 μM

Sequence of human P2X7 (Q99572 whole entry): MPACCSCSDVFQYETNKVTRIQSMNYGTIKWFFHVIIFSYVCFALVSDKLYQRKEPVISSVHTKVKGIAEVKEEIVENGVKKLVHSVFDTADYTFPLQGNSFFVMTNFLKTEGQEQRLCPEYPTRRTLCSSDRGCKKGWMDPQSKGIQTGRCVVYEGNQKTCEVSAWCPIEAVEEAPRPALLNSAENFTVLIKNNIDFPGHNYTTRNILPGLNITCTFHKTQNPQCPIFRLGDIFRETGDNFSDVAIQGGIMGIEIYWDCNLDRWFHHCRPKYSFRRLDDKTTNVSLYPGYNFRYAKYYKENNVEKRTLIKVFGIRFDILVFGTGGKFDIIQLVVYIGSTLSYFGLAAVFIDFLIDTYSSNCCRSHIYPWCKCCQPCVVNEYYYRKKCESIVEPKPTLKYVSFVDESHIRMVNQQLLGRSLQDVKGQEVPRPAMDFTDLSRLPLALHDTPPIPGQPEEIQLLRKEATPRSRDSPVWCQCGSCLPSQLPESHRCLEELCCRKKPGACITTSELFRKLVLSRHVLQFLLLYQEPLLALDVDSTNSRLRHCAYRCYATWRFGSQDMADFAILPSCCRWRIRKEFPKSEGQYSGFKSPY

Row | PBMC 10 μM (% control) (human PBMCs) | PBMC 10 μM (% control) (LPS 30 ng/ml + 0.5 mM Bz-ATP) | PBMC 1 μM (% control) (human PBMCs, test compound 1 μM) | SMILES
1 | −0.3 | – | 5.2 | C[C@H]1c2nnn(-c3cnccn3)c2CCN1C(=O)c1cccc(C(F)(F)F)c1Cl (single isomer, unassigned) [Example 75, (4S*)-5-{[2-Chloro-3-(trifluoromethyl)phenyl]carbonyl}-4-methyl-1-pyrazin-2-yl-4,5,6,7-tetrahydro-1H-[1,2,3]triazolo[4,5-c]pyridine]
2 | 3.3 | – | – | C[C@H]1c2nnn(-c3ncccn3)c2CCN1C(=O)c1cccc(C(F)(F)F)c1Cl (single isomer, unassigned) [Example 87, (4S*)-5-{[2-Chloro-3-(trifluoromethyl)phenyl]carbonyl}-4-methyl-1-pyrimidin-2-yl-4,5,6,7-tetrahydro-1H-[1,2,3]triazolo[4,5-c]pyridine]
3 | 18.2 | – | – | CC1c2nnn(-c3ncccn3)c2CCN1C(=O)c1cccc(C(F)(F)F)c1Cl (single isomer, unassigned) [Example 88, (4R*)-5-{[2-Chloro-3-(trifluoromethyl)phenyl]carbonyl}-4-methyl-1-pyrimidin-2-yl-4,5,6,7-tetrahydro-1H-[1,2,3]triazolo[4,5-c]pyridine]
4 | 3.5 | – | – | C[C@H]1c2nnn(-c3cc(F)ccn3)c2CCN1C(=O)c1cccc(C(F)(F)F)c1Cl (single isomer, unassigned) [Example 149, (S*)-(2-Chloro-3-(trifluoromethyl)phenyl)(1-(4-fluoropyridin-2-yl)-4-methyl-6,7-dihydro-1H-[1,2,3]triazolo[4,5-c]pyridin-5(4H)-yl)methanone]
5 | −1.4 | – | – | C[C@H]1c2nnn(-c3ncc(F)cn3)c2CCN1C(=O)c1cccc(C(F)(F)F)c1Cl (single isomer, unassigned) [Example 157, (S*)-(2-Chloro-3-(trifluoromethyl)phenyl)(1-(5-fluoropyrimidin-2-yl)-4-methyl-6,7-dihydro-1H-[1,2,3]triazolo[4,5-c]pyridin-5(4H)-yl)methanone]
6 | −3.7 | −3.7 | – | Cc1ccnc(-n2nnc3c2CCN(C(=O)c2cccc(C(F)(F)F)c2Cl)[C@@H]3C)c1 (single isomer, unassigned) [Example 185, (R*)-(2-chloro-3-(trifluoromethyl)phenyl)(4-methyl-1-(4-methylpyridin-2-yl)-6,7-dihydro-1H-[1,2,3]triazolo[4,5-c]pyridin-5(4H)-yl)methanone]
7 | −0.5 | −0.5 | – | Cc1ccnc(-n2nnc3c2CCN(C(=O)c2cccc(C(F)(F)F)c2Cl)[C@H]3C)c1 (single isomer, unassigned) [Example 186, (S*)-(2-chloro-3-(trifluoromethyl)phenyl)(4-methyl-1-(4-methylpyridin-2-yl)-6,7-dihydro-1H-[1,2,3]triazolo[4,5-c]pyridin-5(4H)-yl)methanone]

The remaining lines, values behind:

Row | SMILES | PBMC 10 μM (% control) (human PBMCs) | PBMC 10 μM (% control) (LPS 30 ng/ml + 0.5 mM Bz-ATP) | PBMC 1 μM (% control) (human PBMCs, test compound 1 μM)
8 | CC1c2ncn(-c3ccccn3)c2CCN1C(=O)c1cccc(C(F)(F)F)c1F (single isomer, unassigned) [Example 42, (4R*)-5-{[2-Fluoro-3-(trifluoromethyl)phenyl]carbonyl}-4-methyl-1-pyridin-2-yl-4,5,6,7-tetrahydro-1H-imidazo[4,5-c]pyridine] | 5.8 | 5.8 | –
9 | C[C@@H]1c2ncn(-c3ccc(F)cc3)c2CCN1C(=O)c1cccc(C(F)(F)F)c1Cl (single isomer, unassigned) [Example 46, (4R*)-5-{[2-Chloro-3-(trifluoromethyl)phenyl]carbonyl}-1-(4-fluorophenyl)-4-methyl-4,5,6,7-tetrahydro-1H-imidazo[4,5-c]pyridine] | 2.1 | 2.1 | –
10 | C[C@H]1c2ncn(-c3ccc(F)cc3)c2CCN1C(=O)c1cccc(C(F)(F)F)c1Cl (single isomer, unassigned) [Example 47] | −1.1 | – | –
11 | C[C@@H]1Cc2c(nnn2-c2ccccn2)CN1C(=O)c1cccc(C(F)(F)F)c1Cl (single isomer, unassigned) [Example 119, 5-{[2-Chloro-3-(trifluoromethyl)phenyl]carbonyl}-(R*)-6-methyl-1-pyridin-2-yl-4,5,6,7-tetrahydro-1H-[1,2,3]triazolo[4,5-c]pyridine] | 20.0 | – | –
12 | C[C@@H]1c2nnn(-c3cc[nH]n3)c2CCN1C(=O)c1cccc(C(F)(F)F)c1Cl (single isomer, unassigned) [Example 133, (R*)-(2-Chloro-3-(trifluoromethyl)phenyl)(4-methyl-1-(1H-pyrazol-5-yl)-6,7-dihydro-1H-[1,2,3]triazolo[4,5-c]pyridin-5(4H)-yl)methanone] | −0.2 | – | –
13 | C[C@@H]1c2nnn(-c3cnccn3)c2CCN1C(=O)c1ccc(F)c(Cl)c1Cl (single isomer, unassigned) [Example 143, (R*)-(2,3-Dichloro-4-fluorophenyl)(4-methyl-1-(pyrazin-2-yl)-6,7-dihydro-1H-[1,2,3]triazolo[4,5-c]pyridin-5(4H)-yl)methanone] | 58.0 | – | –
14 | C[C@H]1c2nnn(-c3cccc(F)n3)c2CCN1C(=O)c1cccc(C(F)(F)F)c1Cl (single isomer, unassigned) [Example 147, (S*)-(2-Chloro-3-(trifluoromethyl)phenyl)(1-(6-fluoropyridin-2-yl)-4-methyl-6,7-dihydro-1H-[1,2,3]triazolo[4,5-c]pyridin-5(4H)-yl)methanone] | −8.9 | – | –
15 | C[C@@H]1c2nnn(-c3cc(F)ccn3)c2CCN1C(=O)c1cccc(C(F)(F)F)c1Cl (single isomer, unassigned) [Example 148, (R*)-(2-Chloro-3-(trifluoromethyl)phenyl)(1-(4-fluoropyridin-2-yl)-4-methyl-6,7-dihydro-1H-[1,2,3]triazolo[4,5-c]pyridin-5(4H)-yl)methanone] | −9.6 | – | –
16 | C[C@H]1Cc2c(nnn2-c2ncccc2F)CN1C(=O)c1cccc(Cl)c1Cl (single isomer, unassigned) [Example 166, (6S*)-5-[(2,3-Dichlorophenyl)carbonyl]-1-(3-fluoropyridin-2-yl)-6-methyl-4,5,6,7-tetrahydro-1H-[1,2,3]triazolo[4,5-c]pyridine] | 0.6 | – | –
17 | C[C@@H]1Cc2c(nnn2-c2ncccc2F)CN1C(=O)c1cccc(C(F)(F)F)c1Cl (single isomer, unassigned) [Example 167, (6R*)-5-{[2-Chloro-3-(trifluoromethyl)phenyl]carbonyl}-1-(3-fluoropyridin-2-yl)-6-methyl-4,5,6,7-tetrahydro-1H-[1,2,3]triazolo[4,5-c]pyridine] | 4.2 | – | –
18 | C[C@H]1Cc2c(nnn2-c2ncccc2F)CN1C(=O)c1cccc(C(F)(F)F)c1Cl (single isomer, unassigned) [Example 168, (6S*)-5-{[2-Chloro-3-(trifluoromethyl)phenyl]carbonyl}-1-(3-fluoropyridin-2-yl)-6-methyl-4,5,6,7-tetrahydro-1H-[1,2,3]triazolo[4,5-c]pyridine] | −4.2 | – | –
19 | C[C@@H]1c2nnn(-c3ccn(C)n3)c2CCN1C(=O)c1cccc(C(F)(F)F)c1Cl (single isomer, unassigned) [Example 169, (R*)-(2-Chloro-3-(trifluoromethyl)phenyl)(4-methyl-1-(1-methyl-1H-pyrazol-3-yl)-6,7-dihydro-1H-[1,2,3]triazolo[4,5-c]pyridin-5(4H)-yl)methanone] | 95.0 | – | –
20 | C[C@H]1c2nnn(-c3ccn(C)n3)c2CCN1C(=O)c1cccc(C(F)(F)F)c1Cl (single isomer, unassigned) [Example 170, (S*)-(2-Chloro-3-(trifluoromethyl)phenyl)(4-methyl-1-(1-methyl-1H-pyrazol-3-yl)-6,7-dihydro-1H-[1,2,3]triazolo[4,5-c]pyridin-5(4H)-yl)methanone] | −5.7 | – | –
21 | C[C@H]1c2nnn(-c3ccn(CCF)n3)c2CCN1C(=O)c1cccc(C(F)(F)F)c1Cl (single isomer, unassigned) [Example 172, (S*)-(2-Chloro-3-(trifluoromethyl)phenyl)(1-(1-(2-fluoroethyl)-1H-pyrazol-3-yl)-4-methyl-6,7-dihydro-1H-[1,2,3]triazolo[4,5-c]pyridin-5(4H)-yl)methanone] | −6.0 | – | –
22 | C[C@H]1c2nnn(-c3ncc(F)cn3)c2CCN1C(=O)c1cccc(C(F)(F)F)c1F (single isomer, unassigned) [Example 178, (S*)-(2-fluoro-3-(trifluoromethyl)phenyl)(1-(5-fluoropyrimidin-2-yl)-4-methyl-6,7-dihydro-1H-[1,2,3]triazolo[4,5-c]pyridin-5(4H)-yl)methanone] | −4.7 | −4.7 | –
23 | Cc1cc(C)nc(-n2nnc3c2CCN(C(=O)c2cccc(C(F)(F)F)c2Cl)[C@@H]3C)n1 (single isomer, unassigned) [Example 181, (R*)-(2-chloro-3-(trifluoromethyl)phenyl)(1-(4,6-dimethylpyrimidin-2-yl)-4-methyl-6,7-dihydro-1H-[1,2,3]triazolo[4,5-c]pyridin-5(4H)-yl)methanone] | −0.1 | −0.1 | –
24 | C[C@H]1Cc2c(nnn2-c2ncc(F)cn2)CN1C(=O)c1ccnc(C(F)(F)F)c1Cl (single isomer, unassigned) [Example 183, (R*)-(3-chloro-2-(trifluoromethyl)pyridin-4-yl)(1-(5-fluoropyrimidin-2-yl)-6-methyl-6,7-dihydro-1H-[1,2,3]triazolo[4,5-c]pyridin-5(4H)-yl)methanone] | −1.2 | −1.2 | –
